# Measured values as given in patent publication US8247372B2 (University of Southampton, priority 2006, dated 2012).
# How the values were obtained:
# [1] = tested on: HDAC (Hela Nuclear Extract); assay: In vitro HDAC fluorescent activity assay (Activity Assay 1); settings: read-out: Inhibition of HDAC activity IC50, compounds reduced with DTT prior to analysis
# Description: In vitro HDAC assays were performed using a HDAC fluorescent activity assay kit (Biomol, UK) according to the manufacturer's instructions. Compounds were reduced prior to analysis; 1 mM compound was reduced with 30 mM DTT in DMSO overnight at room temperature, protected from light. Reactions were then set up in a 96-well plate. […] Serial dilutions were set up for each compound. Reactions containing Hela extract only and assay buffer only were also set up. 25 μl diluted Fluor de LYS™ substrate (100-fold in assay buffer) was added to each reaction, which were then incubated at 37° C. for 1 hour. The reaction was stopped by addition of 50 μl Fluor de LYS™ Developer (20-fold dilution in assay buffer, plus TSA diluted 100-fold). […] Inhibition of in vitro HDAC activity was determined for mean values of duplicate samples as percentages relative to HeLa extract only reactions. IC50 values were calculated using GraphPad Prism software.
# [2] = tested on: MCF7 breast, A2780 ovarian and PC3 and LNCAP prostate cancer cells; assay: CyQuant cell proliferation assay (Activity Assay 2); assay type: cell-based; settings: Homo sapiens; cell line not given; read-out: Cell growth inhibition IC50
# Description: Typically in this embodiment, said assay is performed using the CyQuant™ assay system (Moelcular Probes, Inc. USA).
# [3] = tested on: TNFα secretion from PBMCs; assay: TNF-α immunoassay in LPS-stimulated PBMCs (Activity Assay 3); settings: normalized to 10 pg LPS alone (=100.00)
# Description: TNF-α immunoassays were carried out using the Quantikine® Human TNF-α assay kit (R&D systems, Abingdon UK) according to the manufacturer's instructions. […] Compounds were added 1 hour later in volumes of 100 μl at 6× final concentration. Five hours later, lipopol ysaccharide (LSP, Sigma, Poole, UK) was added in a volume of 10 μl at 60× final concentration plates were mixed and left overnight at 37° C. 5% CO2. Plates were centrifuged and cell supernatant was transferred to a new plate. The Quantikine® assay reagents and standards were prepared according to the manufacturer instructions. The Quantikine® assay plate was prepared by adding 50 μl of assay dilutent RD1F into each well. This was followed by 200 μl of standard or 100 μl of calibrator dilutent plus 100 μl cell supernatant; this was incubated for 2 hours at room temperature (RT). The plate was washed using wash buffer 4 times. After the final wash the plate was tapped on clean paper towel to remove all residual buffer. 200 μl of TNF-α conjugate was added to each well and incubated for 1 hour at RT. The plate was then washed as before. The required amount of substrate solution was prepared by adding equal volumes of colour reagents A and B, protecting from light, 200 μl of this mix was added to each well and incubated for 20 mins at RT, protected from light. 50 μl of stop solution was added to each well in the same order as the substrate solution and the plate was read on a Biorad 680 96 well plate reader (Bio-Rad, Hemel Hempstead, UK) at 450 nm with λ correction at 570 nm. TNF-α levels were determined for mean values of duplicate samples using absorbance in nm, calibration zero values were subtracted from all results to correct for the addition of calibrator diluent in the assay.
SMILES,IC50 [1] [nM],IC50 [2] [nM],also measured
"CC(C)C[C@H]1NC(=O)C[C@H]2/C=C/CCSSC[C@@H](NC1=O)C(=O)N[C@H](C(C)C)C(O)CC(=O)O2 (stereo in doubt) [Compound 7C, (E)-(1S,5R,6R,9S,20R)-5-Hydroxy-20-isobutyl-6-isopropyl-2-oxa-11,12-dithia-7,19,22-triaza-bicyclo[7.7.6]docos-15-ene-3,8,18,21-tetraone]",11,0.23,–
CC(C)[C@H]1NC(=O)[C@H]2CSSCC/C=C/[C@H](CC(=O)N[C@H](Cc3ccccc3)C(=O)N2)OC(=O)C[C@@H]1O [Compound 7A],3.3,0.07,"TNFα Secretion (Normalized*) ([3]; Cells + 10 pg LPS + 0.025 nM compound): 63.90; TNFα Secretion (Normalized*) ([3]; Cells + 10 pg LPS + 0.05 nM compound): 58.12; TNFα Secretion (Normalized*) ([3]; Cells + 10 pg LPS + 0.1 nM compound): 45.45; TNFα Secretion (Normalized*) ([3]; Cells + 10 pg LPS + 0.2 nM compound): 31.11; TNFα Secretion (Normalized*) ([3]; Cells + 10 pg LPS + 0.4 nM compound): 18.66; TNFα Secretion (Normalized*) ([3]; Cells + 0.025 nM compound, no LPS): −0.26; TNFα Secretion (Normalized*) ([3]; Cells + 0.05 nM compound, no LPS): −0.06; TNFα Secretion (Normalized*) ([3]; Cells + 0.1 nM compound, no LPS): −0.08; TNFα Secretion (Normalized*) ([3]; Cells + 0.2 nM compound, no LPS): −0.03; TNFα Secretion (Normalized*) ([3]; Cells + 0.4 nM compound, no LPS): 0.13"
"CC(C)[C@H]1NC(=O)[C@H]2CSSCC/C=C/[C@H](CC(=O)N[C@H](Cc3cn(C(=O)OC(C)(C)C)c4ccccc34)C(=O)N2)OC(=O)C[C@@H]1O [Compound 7B, 3-((E)-(1S,5S,6R,9 S,20R)-5-Hydroxy-6-isopropyl-3,8,18,21-tetraoxo-2-oxa-11,12-dithia-7,19,22-triaza-bicyclo[7.7.6]docos-15-en-20-ylmethyl)-indole-1-carboxylic acid tert-butyl ester]",436,0.65,–
"C[C@H]1NC(=O)C[C@H]2/C=C/CCSSC[C@@H](NC1=O)C(=O)N[C@H](Cc1ccccc1)[C@@H](O)CC(=O)O2 [Compound 7D, (E)-(1S,5S,6R,9S,20R)-6-Benzyl-5-hydroxy-20-methyl-2-oxa-11,12-dithia-7,19,22-triaza-bicyclo[7.7.6]docos-15-ene-3,8,18,21-tetraone]",18,55,–
"O=C1C[C@H]2/C=C/CCSSC[C@@H](NC(=O)[C@@H](Cc3ccccc3)N1)C(=O)N[C@H](Cc1ccccc1)[C@@H](O)CC(=O)O2 [Compound 7E, (E)-(1S,5S,6R,9S,20R)-6,20-dibenzyl-5-hydroxy-2-oxa-11,12-dithia-7,19,22-triaza-bicyclo[7.7.6]docos-15-ene-3,8,18,21-tetraone]",30,3.2,–
